Laboratory results from the supplement of paper PMC12463676, “Small-molecule dissolution of stress granules by redox modulation benefits ALS models” (Nature Chemical Biology, 2025).

What was measured:
lipoamide = compound: NC(=O)CCCCC1CCSS1 [lipoamide]; assay: thermal stability z-score vs DMSO; higher = more thermally stabilized by treatment; conditions: HeLa, lipoamide concentration 100 µM
Protocol: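 Cellular thermal proteome profiling in HeLa cells. Cells were treated with 100 µM lipoamide for 1 h, with or without 1 mM arsenate for a further 1 h, then heated to ten temperatures (37-66.3 °C), and soluble protein was quantified by TMT mass spectrometry relative to 0.1% DMSO controls. The thermal stability score (sum of log2 fold changes minus the abundance score) was transformed to a z-score; mean of n = 3 experiments.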

potassium arsenate = compound: O=[As]([O-])(O)O.[K+] [potassium arsenate]; assay: as above; conditions: HeLa; arsenate concentration 1 mM
Protocol: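 Cellular thermal proteome profiling in HeLa cells treated with 1 mM arsenate for 1 h (DMSO pretreatment), heated to ten temperatures (37-66.3 °C). Soluble protein was quantified by TMT mass spectrometry relative to DMSO controls; the thermal stability score was transformed to a z-score; mean of n = 3 experiments.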

[1] = arsenate co-treatment: 1 mM arsenate 1 h
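Note: each temperature applied for 3 min, abundance score taken as mean log2 fold change at the two lowest temperatures, z-score obtained by mean subtraction and division by SD.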

Sequence of UniProt Q9NYU1 (Q9NYU1 whole entry): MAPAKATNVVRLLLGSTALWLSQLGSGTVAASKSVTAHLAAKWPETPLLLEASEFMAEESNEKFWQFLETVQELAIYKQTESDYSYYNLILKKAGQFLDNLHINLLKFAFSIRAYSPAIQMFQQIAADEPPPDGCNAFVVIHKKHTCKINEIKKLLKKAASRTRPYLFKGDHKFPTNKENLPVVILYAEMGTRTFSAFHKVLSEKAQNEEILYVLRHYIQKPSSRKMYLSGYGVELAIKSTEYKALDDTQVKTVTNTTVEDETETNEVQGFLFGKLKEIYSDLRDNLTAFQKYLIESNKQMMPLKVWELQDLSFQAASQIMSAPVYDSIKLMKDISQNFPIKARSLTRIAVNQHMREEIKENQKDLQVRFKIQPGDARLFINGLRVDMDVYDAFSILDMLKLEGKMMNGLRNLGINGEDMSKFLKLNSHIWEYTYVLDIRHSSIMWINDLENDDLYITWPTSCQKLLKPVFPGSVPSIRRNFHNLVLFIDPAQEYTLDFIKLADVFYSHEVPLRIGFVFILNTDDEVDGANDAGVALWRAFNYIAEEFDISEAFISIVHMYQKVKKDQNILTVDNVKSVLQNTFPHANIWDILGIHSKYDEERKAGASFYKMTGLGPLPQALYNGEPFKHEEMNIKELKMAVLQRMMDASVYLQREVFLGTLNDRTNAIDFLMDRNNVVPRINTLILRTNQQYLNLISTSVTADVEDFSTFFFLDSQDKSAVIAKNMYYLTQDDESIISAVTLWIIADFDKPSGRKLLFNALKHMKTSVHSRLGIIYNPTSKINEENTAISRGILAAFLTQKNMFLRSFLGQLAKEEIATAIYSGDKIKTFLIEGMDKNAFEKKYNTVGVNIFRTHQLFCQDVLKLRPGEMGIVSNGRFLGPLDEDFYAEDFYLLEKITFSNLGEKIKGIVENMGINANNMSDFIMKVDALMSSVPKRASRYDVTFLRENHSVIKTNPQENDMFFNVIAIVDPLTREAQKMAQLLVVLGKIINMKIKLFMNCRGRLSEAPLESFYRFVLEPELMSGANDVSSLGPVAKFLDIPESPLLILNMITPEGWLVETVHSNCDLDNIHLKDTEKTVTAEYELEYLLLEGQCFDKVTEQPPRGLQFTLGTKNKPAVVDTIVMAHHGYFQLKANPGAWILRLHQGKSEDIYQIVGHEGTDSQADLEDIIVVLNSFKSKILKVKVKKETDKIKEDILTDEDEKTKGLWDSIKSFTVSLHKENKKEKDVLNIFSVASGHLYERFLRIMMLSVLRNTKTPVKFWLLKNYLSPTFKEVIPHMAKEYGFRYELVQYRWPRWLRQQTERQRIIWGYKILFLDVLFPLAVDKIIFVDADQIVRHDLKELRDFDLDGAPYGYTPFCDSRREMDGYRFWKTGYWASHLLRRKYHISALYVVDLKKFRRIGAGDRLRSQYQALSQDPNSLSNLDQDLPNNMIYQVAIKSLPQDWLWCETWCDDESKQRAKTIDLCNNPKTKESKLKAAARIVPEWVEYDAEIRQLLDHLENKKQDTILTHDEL
Sequence of UniProt Q9NWV8 (Q9NWV8 whole entry): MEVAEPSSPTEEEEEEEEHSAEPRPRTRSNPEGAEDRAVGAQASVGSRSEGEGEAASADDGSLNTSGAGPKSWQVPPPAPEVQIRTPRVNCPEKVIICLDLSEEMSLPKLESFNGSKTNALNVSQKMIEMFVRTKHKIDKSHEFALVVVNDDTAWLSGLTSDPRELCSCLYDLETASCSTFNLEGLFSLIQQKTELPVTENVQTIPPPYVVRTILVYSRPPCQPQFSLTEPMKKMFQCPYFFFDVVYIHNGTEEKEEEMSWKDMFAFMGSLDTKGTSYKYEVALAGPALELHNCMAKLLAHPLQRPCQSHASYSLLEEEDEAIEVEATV
Sequence of UniProt Q5SRE5 (Q5SRE5 whole entry): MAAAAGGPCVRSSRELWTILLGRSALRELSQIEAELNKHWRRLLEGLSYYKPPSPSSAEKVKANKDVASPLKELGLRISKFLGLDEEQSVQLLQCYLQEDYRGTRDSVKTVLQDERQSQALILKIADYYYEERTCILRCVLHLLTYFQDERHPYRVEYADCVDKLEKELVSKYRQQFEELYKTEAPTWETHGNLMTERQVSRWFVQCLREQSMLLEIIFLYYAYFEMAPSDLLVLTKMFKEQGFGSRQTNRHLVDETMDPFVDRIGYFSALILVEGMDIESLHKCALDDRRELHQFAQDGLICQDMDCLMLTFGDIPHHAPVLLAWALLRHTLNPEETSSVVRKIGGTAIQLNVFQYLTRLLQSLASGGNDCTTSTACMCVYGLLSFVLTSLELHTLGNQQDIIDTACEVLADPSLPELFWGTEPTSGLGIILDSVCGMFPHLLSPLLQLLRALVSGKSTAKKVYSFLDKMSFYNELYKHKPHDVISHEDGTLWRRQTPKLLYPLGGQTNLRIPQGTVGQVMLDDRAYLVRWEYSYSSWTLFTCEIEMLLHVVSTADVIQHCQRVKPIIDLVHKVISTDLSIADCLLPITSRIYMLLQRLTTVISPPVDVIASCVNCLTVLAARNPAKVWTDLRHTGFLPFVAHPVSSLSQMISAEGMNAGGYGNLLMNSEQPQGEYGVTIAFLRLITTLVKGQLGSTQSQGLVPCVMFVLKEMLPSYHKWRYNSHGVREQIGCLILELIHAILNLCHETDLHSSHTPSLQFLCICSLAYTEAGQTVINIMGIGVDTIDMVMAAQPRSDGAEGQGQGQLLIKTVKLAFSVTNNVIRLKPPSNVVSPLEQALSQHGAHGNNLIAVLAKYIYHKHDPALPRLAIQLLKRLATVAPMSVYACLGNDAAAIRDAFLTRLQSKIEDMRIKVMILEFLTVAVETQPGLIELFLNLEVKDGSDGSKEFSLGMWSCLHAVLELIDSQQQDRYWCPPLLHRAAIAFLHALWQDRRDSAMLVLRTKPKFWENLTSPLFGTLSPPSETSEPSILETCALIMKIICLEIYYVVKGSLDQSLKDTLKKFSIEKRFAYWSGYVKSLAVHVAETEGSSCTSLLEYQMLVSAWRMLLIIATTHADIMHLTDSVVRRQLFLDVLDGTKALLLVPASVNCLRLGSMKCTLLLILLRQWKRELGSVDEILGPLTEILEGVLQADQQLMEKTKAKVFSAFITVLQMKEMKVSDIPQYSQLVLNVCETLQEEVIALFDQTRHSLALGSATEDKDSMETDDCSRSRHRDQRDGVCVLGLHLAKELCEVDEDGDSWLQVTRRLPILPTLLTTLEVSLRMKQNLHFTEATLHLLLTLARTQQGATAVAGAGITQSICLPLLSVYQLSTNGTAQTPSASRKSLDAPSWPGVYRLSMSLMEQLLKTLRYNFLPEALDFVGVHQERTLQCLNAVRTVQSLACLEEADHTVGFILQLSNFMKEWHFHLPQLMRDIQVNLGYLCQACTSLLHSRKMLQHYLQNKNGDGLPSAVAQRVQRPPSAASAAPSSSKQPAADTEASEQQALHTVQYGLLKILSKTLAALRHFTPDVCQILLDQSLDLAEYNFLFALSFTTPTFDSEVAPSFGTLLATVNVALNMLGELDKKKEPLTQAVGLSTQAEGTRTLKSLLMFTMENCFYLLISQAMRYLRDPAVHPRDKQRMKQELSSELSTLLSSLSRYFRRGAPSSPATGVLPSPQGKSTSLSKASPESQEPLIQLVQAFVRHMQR
Sequence of UniProt Q86UE4 (Q86UE4 whole entry): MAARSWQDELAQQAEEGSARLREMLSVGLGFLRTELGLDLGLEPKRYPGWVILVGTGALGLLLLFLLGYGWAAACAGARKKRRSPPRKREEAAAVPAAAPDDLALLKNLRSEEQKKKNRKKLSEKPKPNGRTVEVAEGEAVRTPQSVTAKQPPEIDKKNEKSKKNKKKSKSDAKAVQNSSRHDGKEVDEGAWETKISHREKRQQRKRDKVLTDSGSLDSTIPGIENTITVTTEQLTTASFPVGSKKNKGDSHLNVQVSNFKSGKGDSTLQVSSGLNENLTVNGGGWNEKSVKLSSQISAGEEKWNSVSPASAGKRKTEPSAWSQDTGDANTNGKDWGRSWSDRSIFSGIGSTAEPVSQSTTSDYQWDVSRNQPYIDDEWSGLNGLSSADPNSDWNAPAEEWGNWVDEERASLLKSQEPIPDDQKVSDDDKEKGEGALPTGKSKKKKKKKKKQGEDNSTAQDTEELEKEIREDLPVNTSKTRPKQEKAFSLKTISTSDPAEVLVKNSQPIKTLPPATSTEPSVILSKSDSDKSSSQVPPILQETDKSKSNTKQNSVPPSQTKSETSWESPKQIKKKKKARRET
Sequence of UniProt O75718 (O75718 whole entry): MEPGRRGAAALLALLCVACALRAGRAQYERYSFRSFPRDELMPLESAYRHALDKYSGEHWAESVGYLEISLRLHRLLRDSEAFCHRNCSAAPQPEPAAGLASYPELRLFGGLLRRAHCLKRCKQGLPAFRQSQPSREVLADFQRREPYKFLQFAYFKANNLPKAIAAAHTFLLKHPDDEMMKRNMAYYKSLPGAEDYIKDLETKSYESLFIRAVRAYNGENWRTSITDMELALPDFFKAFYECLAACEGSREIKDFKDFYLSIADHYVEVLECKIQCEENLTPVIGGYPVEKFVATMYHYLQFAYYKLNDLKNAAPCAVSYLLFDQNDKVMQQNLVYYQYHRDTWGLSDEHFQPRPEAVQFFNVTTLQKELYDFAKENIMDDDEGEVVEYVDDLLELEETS
Sequence of UniProt P06730 (P06730 whole entry): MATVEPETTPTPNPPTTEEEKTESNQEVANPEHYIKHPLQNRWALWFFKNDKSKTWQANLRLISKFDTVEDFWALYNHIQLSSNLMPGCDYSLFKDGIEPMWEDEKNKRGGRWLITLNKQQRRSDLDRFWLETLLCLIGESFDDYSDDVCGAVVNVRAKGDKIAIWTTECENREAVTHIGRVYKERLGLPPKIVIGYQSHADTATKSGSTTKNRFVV
Sequence of UniProt Q9BTZ2 (Q9BTZ2 whole entry): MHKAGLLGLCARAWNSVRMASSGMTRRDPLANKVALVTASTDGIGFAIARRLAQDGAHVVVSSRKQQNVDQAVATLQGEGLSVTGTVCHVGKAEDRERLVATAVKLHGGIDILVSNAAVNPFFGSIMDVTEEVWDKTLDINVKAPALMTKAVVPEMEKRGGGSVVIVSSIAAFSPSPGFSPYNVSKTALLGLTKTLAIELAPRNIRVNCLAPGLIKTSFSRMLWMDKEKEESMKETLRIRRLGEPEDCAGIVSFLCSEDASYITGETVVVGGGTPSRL

Target	thermal stability z-score (lipoamide; [1])	thermal stability z-score (lipoamide; arsenate co-treatment: none)	thermal stability z-score (potassium arsenate)
SYPL1 (UniProt Q16563)	0.951	-0.0774	0.425
GABARAPL1 (UniProt Q9H0R8)	-1.22	-2.02	-0.849
FRG1 (UniProt Q14331)	0.146	0.243	0.312
RNASEH2A (UniProt O75792)	0.0654	0.493	0.138
INTS3 (UniProt Q68E01)	-0.121	-0.0169	0.26
DPP9 (UniProt Q86TI2)	-0.0984	-0.0569	0.0941
UGGT2 (UniProt Q9NYU1)	-1.81	-1.31	0.289
OCIAD2 (UniProt Q56VL3)	0.194	0.205	0.549
EIF4E (UniProt P06730)	0.236	-0.135	0.461
RAD21 (UniProt O60216)	0.628	0.377	0.297
MOGS (UniProt Q13724)	-1.24	-0.979	0.158
EIF3E (UniProt P60228)	-0.192	0.126	-0.113
BABAM1 (UniProt Q9NWV8)	0.196	0.129	-0.323
FADS1 (UniProt O60427)	0.469	0.181	0.226
DCTN1 (UniProt Q14203)	-0.27	-0.171	0.369
MTDH (UniProt Q86UE4)	-0.531	-0.503	-1.35
HIST1H1E (UniProt P10412)	0.132	0.627	0.618
EIF4G3 (UniProt O43432)	-0.341	0.15	0.0581
TPP1 (UniProt O14773)	-0.299	-0.137	-0.0975
DOPEY2 (UniProt Q9Y3R5)	1.01	0.402	-0.9
RPL7 (UniProt P18124)	1.02	0.379	-0.13
C16ORF62 (UniProt Q7Z3J2)	0.411	0.213	0.119
MARCH5 (UniProt Q9NX47)	0.842	-0.0503	0.411
MTCH1 (UniProt Q9NZJ7)	-0.143	-0.0871	0.404
MTFR1 (UniProt Q15390)	-0.301	0.52	0.165
HN1 (UniProt Q9UK76)	1.68	1.13	0.518
TNFRSF1A (UniProt P19438)	-0.0438	-0.00708	0.164
JMJD1C (UniProt Q15652)	0.559	-0.396	-0.398

Target	thermal stability z-score (lipoamide; [1])	thermal stability z-score (lipoamide; arsenate co-treatment: none)	thermal stability z-score (potassium arsenate)
LEO1 (UniProt Q8WVC0)	1.13	0.765	0.239
NAA20 (UniProt P61599)	0.753	0.153	0.0823
GALNS (UniProt P34059)	0.346	0.41	0.274
TOX4 (UniProt O94842)	-0.0663	-0.0734	-0.108
NUDT16 (UniProt Q96DE0)	0.938	0.232	-0.335
NUP188 (UniProt Q5SRE5)	-0.451	-0.512	0.426
SH3PXD2B (UniProt A1X283)	-0.428	-0.272	-0.433
DHRS4 (UniProt Q9BTZ2)	-0.194	-0.173	0.0753
METTL10 (UniProt Q5JPI9)	-0.0093	0.0402	0.206
RNF40 (UniProt O75150)	0.453	0.161	0.711
MICAL3 (UniProt Q7RTP6)	0.231	0.334	0.0242
VMP1 (UniProt Q96GC9)	-1.19	-1.69	-0.372
DNAJC9 (UniProt Q8WXX5)	0.604	0.566	-2.09
EXOSC6 (UniProt Q5RKV6)	0.123	0.0946	-1.85
TNRC6B (UniProt Q9UPQ9)	-0.194	-0.00843	-0.306
CHMP7 (UniProt Q8WUX9)	-0.517	-0.865	-0.0641
MAX (UniProt P61244)	2.75	2.05	2.9
MMAA (UniProt Q8IVH4)	0.33	-0.0208	-1.04
TOMM20 (UniProt Q15388)	0.133	1.67	1.73
C8ORF59 (UniProt Q8N0T1)	0.481	0.508	-0.38
RAD51AP1 (UniProt Q96B01)	0.0622	-0.213	-0.76
CRTAP (UniProt O75718)	-3.99	-3.27	0.92
PPP1R3D (UniProt O95685)	-0.601	-0.982	-0.0465
SH3GLB2 (UniProt Q9NR46)	-0.0875	0.468	0.364
AKAP13 (UniProt Q12802)	-0.125	-0.1	0.667
STIM1 (UniProt Q13586)	-1.28	-1.03	0.0811
MRPS26 (UniProt Q9BYN8)	0.609	0.375	0.123
